Conditions: in water

O=C(O)c1ccco1
Conditions | solubility (mole fraction)
279.15 K | 0.00411
280.15 K | 0.00414
283.65 K | 0.00431
284.15 K | 0.00462
285.15 K | 0.00471
289.15 K | 0.00483
294.15 K | 0.00633
298.15 K | 0.00796
301.15 K | 0.00886
302.15 K | 0.0099
307.15 K | 0.0125
309.15 K | 0.013
311.15 K | 0.0154
315.15 K | 0.0231
317.15 K | 0.0257
319.8 K | 0.031
323.15 K | 0.0513
325.15 K | 0.0664
327.15 K | 0.0722
327.65 K | 0.074
328.15 K | 0.0907
330.65 K | 0.128
333.2 K | 0.144
334.55 K | 0.144
336.15 K | 0.199
341.15 K | 0.262

O=C(O)c1ccccc1O
Conditions | solubility (mole fraction)
283.15 K | 0.0002
298.15 K | 0.000333
307.15 K | 0.000441
317.15 K | 0.000572
318.15 K | 0.000677
320.15 K | 0.000672
323.15 K | 0.000742
324.15 K | 0.000785
325.15 K | 0.000847
327.15 K | 0.000934
328.15 K | 0.000964
330.65 K | 0.00111
334.65 K | 0.00131
339.15 K | 0.00149

O=C(O)CCCCCC(=O)O
Conditions | solubility (mole fraction)
279.15 K | 0.00204
281.15 K | 0.00211
284.15 K | 0.00245
289.15 K | 0.00417
291.15 K | 0.00474
293.15 K | 0.00568
297.15 K | 0.00738
298.15 K | 0.00756
302.15 K | 0.00906
304.15 K | 0.00994
307.15 K | 0.0113
310.15 K | 0.0132
313.15 K | 0.0186
316.15 K | 0.0364
318.15 K | 0.0464
320.65 K | 0.0584
323.15 K | 0.0776
327.98 K | 0.14
333.15 K | 0.189
337.65 K | 0.261
342.15 K | 0.328

O=C(O)CCCC(=O)O
Conditions | solubility (mole fraction)
279.15 K | 0.0734
281.15 K | 0.0784
284.15 K | 0.085
286.15 K | 0.101
289.15 K | 0.118
291.15 K | 0.129
293.15 K | 0.139
298.15 K | 0.16
302.15 K | 0.189
304.15 K | 0.2
307.15 K | 0.216
310.15 K | 0.236
312.15 K | 0.249
316.15 K | 0.281
317.15 K | 0.287
318.15 K | 0.289
320.55 K | 0.308
323.15 K | 0.327
327.65 K | 0.355
329.15 K | 0.398
332.15 K | 0.419
334.25 K | 0.424
336.15 K | 0.478
342.15 K | 0.537

O=C(O)c1ccccc1C(=O)O
Conditions | solubility (mole fraction)
283.65 K | 0.000284
296.15 K | 0.000709
298.15 K | 0.000761
302.65 K | 0.000935
307.15 K | 0.00107
309.15 K | 0.00119
311.15 K | 0.00126
315.15 K | 0.00151
317.15 K | 0.00164
318.15 K | 0.00164
319.15 K | 0.00181
320.15 K | 0.00205
323.15 K | 0.00223
327.15 K | 0.00248
334.15 K | 0.00323
338.15 K | 0.004
